These results are taken from article PMC13005684 (Advanced Healthcare Materials, 2025).

Counter-ions that a name gives are not always drawn.

As usually defined, the IC50 is the concentration at which inhibition is half-maximal.

The subject of test [1] is MDA-MB-231 cells. Nature of the test: cells. The settings on record: Homo sapiens, MDA-MB-231, 72 h, read-out: 3-day IC50. It counts as cell-based.
The test system of test [2] is MDA-MB-231 cells. It is filed as cell-based, human.

On to `COc1cccc2c1C(=O)c1c(O)c3c(c(O)c1C2=O)C[C@@](O)(C(=O)CO)C[C@@H]3O[C@H]1C[C@H](N)[C@H](O)[C@H](C)O1` [doxorubicin, doxorubicin hydrochloride], for which the IC50 with MDA-MB-231 cells [1] is approximately 510 nM. In addition, the “cell death pathway triggered” value in the test with MDA-MB-231 cells [2] is reported as “necrotic cell death pathway”.
For the molecule `COC1=C2C[C@@H](C)C[C@H](OC)[C@H](O)[C@@H](C)/C=C(\C)[C@H](OC(N)=O)[C@@H](OC)/C=C\C=C(/C)C(=O)NC(=CC1=O)C2=O` [geldanamycin, Geldanamycin], the IC50 in the test on MDA-MB-231 cells [1] amounted to 3700 nM. For the same molecule, the “cell death pathway triggered” value with MDA-MB-231 cells [2] is “apoptosis”.
